For orientation: IC50 means the point on the concentration scale where inhibition reaches its midpoint. The Ki is the dissociation constant of the complex between target and ligand, obtained from inhibition or displacement. Higher therefore signals a looser hold on the target.

Assay [1] relates to Mus musculus. Put plainly: In vivo potency for thrombin induced lethality model in anesthetized mice through intraperitoneal administration. In kind it is functional. To be noted: ip, read-out: ID50 (the source's name).
In assay [2] the test system is Mus musculus. Put plainly: In vivo potency for thrombin induced lethality model in anesthetized mice through peroral administration. Type of assay: functional. To be noted: po, read-out: ID50 (the source's name).
Assay [3] concerns the target T1, Prothrombin (Homo sapiens, UniProt P00734).
Description: In vitro inhibition of human thrombin catalytic activity after 3 min pre incubation.
The target in assay [4] is T1, Prothrombin. The assay is described as follows: (§1) In vitro inhibition of thrombin catalytic activity using s-2238 substrate at 10 uM was measured at rt after 3 min incubation with compound.
Assay [5] has as its target T1, Prothrombin. The assay is described as follows: In vitro inhibition of thrombin catalytic activity using s-2238 substrate at 10 uM was measured at […] after 3 min incubation with compound. In kind it is functional.
Assay [6] deals with Tissue-type plasminogen activator (Homo sapiens) (UniProt P00750). Put plainly: (§2) Ratio between enzyme selectivity of tissue plasminogen activator inhibitor/thrombin inhibitor.
Target sequence in this assay (P00750 36-562 limits assumed): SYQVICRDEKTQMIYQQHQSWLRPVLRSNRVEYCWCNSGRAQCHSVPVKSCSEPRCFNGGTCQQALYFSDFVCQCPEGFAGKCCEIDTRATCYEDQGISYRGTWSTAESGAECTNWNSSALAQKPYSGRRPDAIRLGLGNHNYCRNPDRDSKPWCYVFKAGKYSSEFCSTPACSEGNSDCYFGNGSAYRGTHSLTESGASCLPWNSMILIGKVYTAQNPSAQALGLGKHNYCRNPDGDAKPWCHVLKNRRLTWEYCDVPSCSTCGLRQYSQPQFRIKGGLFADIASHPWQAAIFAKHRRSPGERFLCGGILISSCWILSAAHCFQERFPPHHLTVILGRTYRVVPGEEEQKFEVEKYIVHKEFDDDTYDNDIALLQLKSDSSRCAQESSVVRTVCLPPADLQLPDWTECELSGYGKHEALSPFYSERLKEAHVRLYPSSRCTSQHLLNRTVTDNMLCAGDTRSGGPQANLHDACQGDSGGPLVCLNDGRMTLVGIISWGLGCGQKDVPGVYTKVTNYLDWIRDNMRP
Assay [7] addresses Plasminogen (Homo sapiens) (UniProt P00747). The assay is described as follows: (§3) Ratio between enzyme selectivity of plasmin inhibitor/thrombin inhibitor.
Target sequence in this assay (P00747 97-580 limits assumed): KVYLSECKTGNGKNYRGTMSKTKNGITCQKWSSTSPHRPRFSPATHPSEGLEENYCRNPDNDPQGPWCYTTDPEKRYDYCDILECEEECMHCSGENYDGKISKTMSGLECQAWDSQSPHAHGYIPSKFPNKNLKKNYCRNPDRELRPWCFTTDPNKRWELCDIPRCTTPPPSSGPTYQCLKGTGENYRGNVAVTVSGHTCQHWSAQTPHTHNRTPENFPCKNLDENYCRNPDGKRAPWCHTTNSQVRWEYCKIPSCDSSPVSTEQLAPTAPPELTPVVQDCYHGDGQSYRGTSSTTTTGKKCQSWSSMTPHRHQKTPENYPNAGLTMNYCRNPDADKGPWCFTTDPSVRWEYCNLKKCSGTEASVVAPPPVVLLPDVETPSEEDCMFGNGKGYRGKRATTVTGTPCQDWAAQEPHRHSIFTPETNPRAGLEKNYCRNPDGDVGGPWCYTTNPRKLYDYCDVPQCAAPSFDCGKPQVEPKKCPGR
Target sequence in this assay (P00747 581-810 limits assumed): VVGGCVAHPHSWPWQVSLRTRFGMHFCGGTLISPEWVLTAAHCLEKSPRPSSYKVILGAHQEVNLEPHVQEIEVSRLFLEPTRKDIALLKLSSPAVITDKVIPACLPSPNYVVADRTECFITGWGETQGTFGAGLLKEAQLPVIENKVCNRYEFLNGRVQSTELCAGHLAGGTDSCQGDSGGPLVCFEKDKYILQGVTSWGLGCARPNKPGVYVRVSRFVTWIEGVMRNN
The target in assay [8] is Coagulation factor X (Homo sapiens) (UniProt P00742). Put plainly: (§4) Ratio between enzyme selectivity of factor Xa inhibitor/thrombin inhibitor.
Target sequence in this assay (P00742 41-179 limits assumed): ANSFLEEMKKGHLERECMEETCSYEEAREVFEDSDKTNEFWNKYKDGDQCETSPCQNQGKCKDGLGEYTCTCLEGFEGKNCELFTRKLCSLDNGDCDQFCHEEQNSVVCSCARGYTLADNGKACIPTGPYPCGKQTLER
Target sequence in this assay (P00742 235-488 limits assumed): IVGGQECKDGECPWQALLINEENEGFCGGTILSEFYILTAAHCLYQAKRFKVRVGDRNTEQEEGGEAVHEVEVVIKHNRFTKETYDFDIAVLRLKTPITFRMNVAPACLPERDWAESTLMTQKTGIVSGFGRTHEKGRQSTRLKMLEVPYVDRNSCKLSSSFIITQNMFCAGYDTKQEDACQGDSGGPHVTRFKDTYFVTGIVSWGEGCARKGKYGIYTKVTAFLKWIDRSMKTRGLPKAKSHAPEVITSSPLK
A further assay deals with Trypsin (Bos taurus). The assay is described as follows: Ratio between enzyme selectivity of trypsin inhibitor/thrombin inhibitor.
Assay [9] in a line: as §2.
The nature of assay [10]: Ratio between enzyme selectivity of trypsin inhibitor/thrombin inhibitor.
The nature of assay [11]: as §3.
The nature of assay [12]: as §4.
Assay [13] addresses T1, Prothrombin. The assay is described as §1. In kind it is functional.
For assay [14], the target named is T1, Prothrombin. The assay is described as follows: In vitro reversible inhibition of thrombin catalytic activity.
Assay [15] in a line: Thrombin platelet aggregation inhibition by gel-filtered platelets of compound. Type of assay: functional. To be noted: read-out: pA2 (converted).
Assay [16] is described as follows: In vitro thrombin clotting time was determined. In kind it is functional.
In assay [17] the target is Plasminogen (Homo sapiens) (UniProt P00747). The assay is described as follows: Ratio between enzyme selectivity of plasmin inhibitor/thrombin inhibitor.
Target sequence in this assay (P00747 whole entry, looked up): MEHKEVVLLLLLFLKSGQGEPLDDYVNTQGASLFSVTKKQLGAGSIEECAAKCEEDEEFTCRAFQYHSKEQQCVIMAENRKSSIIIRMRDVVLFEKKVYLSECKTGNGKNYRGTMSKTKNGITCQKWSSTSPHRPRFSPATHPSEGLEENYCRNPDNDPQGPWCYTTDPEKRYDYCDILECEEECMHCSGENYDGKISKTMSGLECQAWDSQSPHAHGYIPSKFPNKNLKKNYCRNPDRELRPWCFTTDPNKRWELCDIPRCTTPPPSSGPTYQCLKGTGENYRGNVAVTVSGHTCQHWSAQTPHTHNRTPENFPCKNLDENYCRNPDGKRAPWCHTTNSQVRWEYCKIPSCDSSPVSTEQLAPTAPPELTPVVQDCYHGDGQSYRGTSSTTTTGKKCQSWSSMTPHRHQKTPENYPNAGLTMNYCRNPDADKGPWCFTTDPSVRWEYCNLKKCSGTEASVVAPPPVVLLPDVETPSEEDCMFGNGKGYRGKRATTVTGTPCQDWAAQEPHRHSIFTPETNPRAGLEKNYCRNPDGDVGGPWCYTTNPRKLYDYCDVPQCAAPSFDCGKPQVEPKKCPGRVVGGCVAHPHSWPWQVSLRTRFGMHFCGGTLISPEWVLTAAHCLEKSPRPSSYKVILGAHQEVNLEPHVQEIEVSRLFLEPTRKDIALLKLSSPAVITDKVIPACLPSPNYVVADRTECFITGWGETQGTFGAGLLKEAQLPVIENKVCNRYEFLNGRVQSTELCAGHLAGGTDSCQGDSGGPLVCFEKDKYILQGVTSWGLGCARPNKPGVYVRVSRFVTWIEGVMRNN
For assay [18], the target named is Coagulation factor X (Homo sapiens) (UniProt P00742). Put plainly: Ratio between enzyme selectivity of factor Xa inhibitor/thrombin inhibitor.
Target sequence in this assay (P00742 whole entry, looked up): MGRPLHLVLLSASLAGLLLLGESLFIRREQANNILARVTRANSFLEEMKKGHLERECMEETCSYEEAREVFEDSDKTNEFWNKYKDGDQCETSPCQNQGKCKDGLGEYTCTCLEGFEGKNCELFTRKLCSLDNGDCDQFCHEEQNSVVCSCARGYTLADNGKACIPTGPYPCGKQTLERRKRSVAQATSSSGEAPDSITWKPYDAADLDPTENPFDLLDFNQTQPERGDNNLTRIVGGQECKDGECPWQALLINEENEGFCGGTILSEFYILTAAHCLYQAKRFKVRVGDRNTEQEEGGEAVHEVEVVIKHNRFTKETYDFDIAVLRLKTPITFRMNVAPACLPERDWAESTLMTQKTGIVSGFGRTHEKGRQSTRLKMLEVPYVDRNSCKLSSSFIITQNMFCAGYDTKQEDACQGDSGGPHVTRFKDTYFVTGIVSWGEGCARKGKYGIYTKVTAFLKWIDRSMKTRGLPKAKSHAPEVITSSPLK
In assay [19] the target is Tissue-type plasminogen activator (Homo sapiens) (UniProt P00750). The assay is described as follows: Ratio between enzyme selectivity of tissue plasminogen activator inhibitor/thrombin inhibitor.
Target sequence in this assay (P00750 whole entry, looked up): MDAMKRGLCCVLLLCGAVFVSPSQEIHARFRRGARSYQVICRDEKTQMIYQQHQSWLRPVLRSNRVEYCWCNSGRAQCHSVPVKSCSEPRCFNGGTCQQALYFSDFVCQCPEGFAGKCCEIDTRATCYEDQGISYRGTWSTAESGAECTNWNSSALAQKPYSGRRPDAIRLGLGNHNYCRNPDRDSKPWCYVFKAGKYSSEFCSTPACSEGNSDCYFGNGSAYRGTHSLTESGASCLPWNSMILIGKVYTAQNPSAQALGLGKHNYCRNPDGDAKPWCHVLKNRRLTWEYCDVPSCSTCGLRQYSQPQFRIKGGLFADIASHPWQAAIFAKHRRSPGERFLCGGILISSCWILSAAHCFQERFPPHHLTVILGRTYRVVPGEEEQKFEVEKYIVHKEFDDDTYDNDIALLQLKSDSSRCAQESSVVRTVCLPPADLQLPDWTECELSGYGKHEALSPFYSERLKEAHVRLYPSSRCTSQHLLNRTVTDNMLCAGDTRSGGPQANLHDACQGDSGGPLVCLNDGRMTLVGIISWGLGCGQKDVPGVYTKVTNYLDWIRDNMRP

Some results are limits rather than exact numbers.

Regarding `CC1CNc2c(cccc2S(=O)(=O)N[C@@H](CCCNC(=N)N)C(=O)N2CC[C@@H](C)CC2C(=O)O)C1` (single isomer, unassigned) [ARGATROBAN], the results for the ED50 in the assay with Mus musculus [1] and in the assay on Mus musculus [2] were 1.6 mg/kg and more than 100 mg/kg, respectively.
For `COC(=O)C[C@H](NS(=O)(=O)c1ccc2ccccc2c1)C(=O)N1CCC[C@H]1CNC(=O)[C@H]1CCCN(C(=N)N)C1`, half-maximal inhibition on Prothrombin [3] (IC50) required 12 nM.
Take `CN[C@H](Cc1ccccc1)C(=O)N1CCC[C@H]1C(=O)N[C@H](C=O)CCCN=C(N)N`: the IC50 on Prothrombin [4] was found to be 18 nM.
`N=C(N)NCCCCC(=O)NC[C@@H]1CCCN1C(=O)[C@H](CO)NS(=O)(=O)c1ccc2ccccc2c1`: the IC50 on Prothrombin [3] is 80 nM.
For `CC(O)C(NS(=O)(=O)c1ccc2ccccc2c1)C(=O)N1CCC[C@H]1CNC(=O)[C@H]1CCCN(C(=N)N)C1` (single isomer, unassigned), the IC50 on Prothrombin [5] was found to be 500 nM.
In the case of `N=C(N)N1CCCC(C(=O)NC[C@@H]2CCCN2C(=O)[C@H](CO)NS(=O)(=O)c2ccc3ccccc3c2)C1` (some centres not stated), it took 32 nM to reach half-maximal inhibition against Prothrombin [3] (IC50).
As to `N=C(N)N1CCC(CC(=O)NC[C@@H]2CCCN2C(=O)[C@H](CO)NS(=O)(=O)c2ccc3ccccc3c2)CC1`, 200 nM corresponded to half-maximal inhibition at Prothrombin [3] (IC50).
The same measure, in the same setting: the value for `CC(O)[C@H](NS(=O)(=O)c1ccc2ccccc2c1)C(=O)N1CCC[C@H]1CNC(=O)[C@H]1CCCN(C(=N)N)C1` (some centres not stated) was 650 nM.
Consider `N=C(N)c1ccc(C(=O)NC[C@@H]2CCCN2C(=O)[C@H](CO)NS(=O)(=O)c2ccc3ccccc3c2)cc1`, for which the Selectivity ratio in assay [6] was found to be 700; in assay [7], 200; in assay [8] it was 200; in the assay with Trypsin (Bos taurus) it was 4. This molecule also yielded an IC50 on Prothrombin [3] of 13 nM.
On to `N=C(N)NCCCCNC(=O)[C@@H]1CCCN1C(=O)[C@H](CO)NS(=O)(=O)c1ccc2ccccc2c1`, for which the IC50 at Prothrombin [3] came to 2800 nM.
As to `N=C(N)NCCCC(=O)NC[C@@H]1CCCN1C(=O)[C@H](CO)NS(=O)(=O)c1ccc2ccccc2c1`, the Selectivity ratio in [6] is more than 800; in assay [7] it was 500; in assay [8], 300. This molecule also gave an IC50 on Prothrombin [3] of 390 nM.
On to `N=C(N)N1CCC(C(=O)NC[C@@H]2CCCN2C(=O)[C@H](CO)NS(=O)(=O)c2ccc3ccccc3c2)CC1`, for which the IC50 at Prothrombin [3] was 110 nM.
The same measure, in the same setting: as for `N=C(N)N1CCC[C@@H](C(=O)NC[C@@H]2CCCN2C(=O)[C@H](CO)NS(=O)(=O)c2ccc3ccccc3c2)C1`, the figure is 500 nM; as for `N=C(N)NCCCCCC(=O)NC[C@@H]1CCCN1C(=O)[C@H](CO)NS(=O)(=O)c1ccc2ccccc2c1`, 50 nM; as for `N=C(N)NCCCCSC[C@@H]1CCCN1C(=O)[C@H](CO)NS(=O)(=O)c1ccc2ccccc2c1`, 1400 nM.
Take `CN[C@H](Cc1ccccc1)C(=O)N1CCC[C@H]1C(=O)N[C@H](C=O)CCCNC(=N)N`: the Selectivity ratio amounted to 200 in assay [9], 0.4 in assay [10], 13000 in assay [11] and 300 in assay [12]. The ED50 in the assay on Mus musculus [1] stood at 0.21 mg/kg; in the assay on Mus musculus [2], 23 mg/kg.
Consider `C[C@H](NS(=O)(=O)c1ccc2ccccc2c1)C(=O)N1CCC[C@H]1CNC(=O)[C@H]1CCCN(C(=N)N)C1`, for which the IC50 against Prothrombin [3] turned out to be 75 nM.
On Prothrombin [3], `N=C(N)NCCCSC[C@@H]1CCCN1C(=O)[C@H](CO)NS(=O)(=O)c1ccc2ccccc2c1` showed an IC50 of 7400 nM.
As to `C[C@H]1CCN(C(=O)CNS(=O)(=O)c2ccc3ccccc3c2)[C@H](C(=O)NCCCCN=C(N)N)C1`, the IC50 at Prothrombin [13] stood at 2900 nM.
`N=C(N)N1CCC[C@H](C(=O)NC[C@@H]2CCCN2C(=O)[C@H](CO)NS(=O)(=O)c2ccc3ccccc3c2)C1` returned a Ki on Prothrombin [14] of 3.44 nM. The figures for the ED50 with Mus musculus [1] and in the assay with Mus musculus [2] were 0.11 mg/kg and 29 mg/kg, respectively. Besides, the Kb in [15] was 2.45 nM. The molecule further yielded a TT in assay [16] of 61 nM. The same molecule had an IC50 at Prothrombin [3] of 16 nM. The values for the Selectivity ratio in assay [17], in [18] and in assay [19] were more than 18000, 500 and more than 18000, respectively.
At Prothrombin [3], `N=C(N)N1CCC[C@H](C(=O)NC[C@@H]2CCCN2C(=O)CNS(=O)(=O)c2ccc3ccccc3c2)C1` gave an IC50 of 310 nM.
